This passage reports HC50 results from ChEMBL document CHEMBL1155574, “Hemolytic polar steroidal constituents of the starfish Aphelasterias japonica” (J Nat Prod, 2000).

A short description of the data set: Toxicity against mouse erythrocytes assessed as hemolytic activity. It is filed as cell-based, Erythrocyte. The conditions noted are these: read-out: ED50 (the source's name).
`CC(=O)[C@H]1CC[C@H]2[C@@H]3C[C@H](O)[C@H]4C[C@@H](OS(=O)(=O)O)CC[C@]4(C)C3=CC[C@]12C`: the HC50 is greater than 500 µM.
In the case of `CC(C)CC(=O)C[C@](C)(O)[C@H]1CC[C@H]2[C@@H]3C[C@H](O)[C@H]4C[C@@H](OS(=O)(=O)O)CC[C@]4(C)C3=CC[C@@]21C` [3-O-SULFOTHORNASTEROL A] it was 110 µM; in that of `CC(C)[C@H](O)C(=O)C[C@@H](C)[C@H]1CC[C@H]2[C@@H]3C[C@H](O)[C@H]4C[C@@H](OS(=O)(=O)O)CC[C@]4(C)C3=CC[C@]12C` [APHELAKETOTRIOL], 40 µM.
Take `CC(C)[C@H](O)C(=O)C[C@@H](C)[C@H]1CC[C@H]2[C@@H]3C[C@H](O[C@H]4O[C@@H](C)[C@H](OS(=O)(=O)O)[C@@H](O)[C@@H]4O)[C@H]4C[C@@H](OS(=O)(=O)O)CC[C@]4(C)C3=CC[C@]12C` [APHELASTEROSIDE C]: the HC50 stood at 190 µM.
For the molecule `CC(=O)[C@H]1CC[C@H]2[C@@H]3C[C@H](O[C@H]4O[C@@H](C)[C@H](OS(=O)(=O)O)[C@@H](O)[C@@H]4O)[C@H]4C[C@@H](OS(=O)(=O)O)CC[C@]4(C)C3=CC[C@]12C` [CHELIFEROSIDE L1], the HC50 was determined as 175 µM.
In the case of `CC(=O)[C@H]1CC[C@H]2[C@@H]3C[C@H](O[C@H]4O[C@@H](C)[C@H](O)[C@@H](O)[C@@H]4O)[C@H]4C[C@@H](OS(=O)(=O)O)CC[C@]4(C)C3=CC[C@]12C` [FORBESIDE E3] it was 330 µM.
